Key:
[1] = system: Escherichia coli (ECO) isolates; assay: MIC of compounds alone and combined with antibacterials, broth microdilution (CLSI); format: cell-based
Outline: (§1)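 First, log-phase suspensions are brought to 5.10^5 CFU/mL final in ca-MHB; plates then incubate 16-20 h at 35° C in air. Growth is judged visually, giving the compound MIC alone and the antibacterial MIC at each compound concentration.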

[2] = system: Klebsiella oxytoca (KOX) isolates; assay: as above; format: cell-based
Outline: as §1

## C=CC1=C(C(=O)O)N2C(=O)[C@@H](NC(=O)/C(=N\OCC(=O)O)c3csc(N)n3)[C@H]2SC1 [FIX, Cefixime]
[1]; strain ECO UFR45, genotype TEM-1, CMY-4, OXA-1, OXA-48, VIM-1
  MIC: >128 µg/mL
[1]; strain ECO UFR52, genotype TEM-1, SHV-12, IMP-8
  MIC: >128 µg/mL
[1]; strain ECO UFR61O, compound alone
  MIC: 32 µg/mL
[1]; strain ECO UFR61O, genotype TEM-1, KPC-2
  MIC: 32 µg/mL
[1]; strain ECO UFR62, genotype TEM-1, CTX-M-9, KPC-2
  MIC: 128 µg/mL
[1]; strain ECO UFR74, genotype SHV-1, DHA-1
  MIC: >128 µg/mL
[1]; strain ECO UFR86, genotype ompC-, ompF-
  MIC: 2 µg/mL
[1]; strain ECO UFR174, genotype TEM-1, KPC-2, OXA-1
  MIC: 8 µg/mL
[1]; strain ECO UFR175, genotype TEM-1, KPC-2, OXA-9
  MIC: 64 µg/mL
[1]; strain ECO UFR176, genotype KPC-3, OXA-9*
  MIC: 64 µg/mL
[1]; strain ECO UFR177, genotype TEM-1, CTX-M-15, OXA-1, OXA-2, NDM-1, RmtC, antibiotic alone
  MIC: >128 µg/mL
[1]; strain ECO UFR177, with AF2 @ 8 μg/mL
  MIC ATB in combination: <=0.25 μg/mL
[1]; strain ECO UFR177, with AF3 @ 8 μg/mL
  MIC ATB in combination: <0.25 µg/mL
[1]; strain ECO UFR177, with CLA @ 4 μg/mL
  MIC ATB in combination: >128 µg/mL
[1]; strain ECO UFR178, genotype TEM-1, CTX-M-15, OXA-9, NDM-1, antibiotic alone
  MIC: >128 µg/mL
[1]; strain ECO UFR178, with AF2 @ 8 μg/mL
  MIC ATB in combination: <0.25 µg/mL
[1]; strain ECO UFR178, with AF3 @ 8 μg/mL
  MIC ATB in combination: <0.25 µg/mL
[1]; strain ECO UFR178, with CLA @ 4 μg/mL
  MIC ATB in combination: >128 µg/mL
[1]; strain ECO UFR179, genotype TEM-1, SHV-12, CTX-M-15, NDM-1, antibiotic alone
  MIC: >128 µg/mL
[1]; strain ECO UFR179, with AF2 @ 8 μg/mL
  MIC ATB in combination: <0.25 µg/mL
[1]; strain ECO UFR179, with AF3 @ 8 μg/mL
  MIC ATB in combination: <0.25 µg/mL
[1]; strain ECO UFR179, with CLA @ 4 μg/mL
  MIC ATB in combination: >128 µg/mL
[1]; strain ECO UFR180, genotype TEM-1, CMY-30, OXA-1, NDM-1, antibiotic alone
  MIC: >128 µg/mL
[1]; strain ECO UFR180, with AF2 @ 8 μg/mL
  MIC ATB in combination: <0.25 µg/mL
[1]; strain ECO UFR180, with AF3 @ 8 μg/mL
  MIC ATB in combination: <0.25 µg/mL
[1]; strain ECO UFR180, with CLA @ 4 μg/mL
  MIC ATB in combination: >128 µg/mL
[1]; strain ECO UFR181, genotype TEM-1, CTX-M-15, NDM-5, antibiotic alone
  MIC: >128 µg/mL
[1]; strain ECO UFR181, with AF2 @ 8 μg/mL
  MIC ATB in combination: <=0.25 μg/mL
[1]; strain ECO UFR181, with AF3 @ 8 μg/mL
  MIC ATB in combination: >128 µg/mL
[1]; strain ECO UFR181, with CLA @ 4 μg/mL
  MIC ATB in combination: >128 µg/mL
[1]; strain ECO UFR182, genotype CTX-M-15, OXA-1, NDM-6, antibiotic alone
  MIC: >128 µg/mL
[1]; strain ECO UFR182, with AF2 @ 8 μg/mL
  MIC ATB in combination: <0.25 µg/mL
[1]; strain ECO UFR182, with AF3 @ 8 μg/mL
  MIC ATB in combination: <0.25 µg/mL
[1]; strain ECO UFR182, with CLA @ 4 μg/mL
  MIC ATB in combination: >128 µg/mL
[1]; strain ECO UFR183, genotype CTX-M-15, OXA-1, NDM-7, antibiotic alone
  MIC: >128 µg/mL
[1]; strain ECO UFR183, with AF2 @ 8 μg/mL
  MIC ATB in combination: >128 µg/mL
[1]; strain ECO UFR183, with AF3 @ 8 μg/mL
  MIC ATB in combination: >128 µg/mL
[1]; strain ECO UFR183, with CLA @ 4 μg/mL
  MIC ATB in combination: >128 µg/mL
[1]; strain ECO UFR184, genotype CTX-M-15, CMY-4, OXA-1, OXA-204
  MIC: >128 µg/mL
[1]; strain ECO UFR185, genotype OXA-48
  MIC: >128 µg/mL
[1]; strain ECO UFR186, genotype TEM-1, CTX-M-14, OXA-48
  MIC: 32 µg/mL
[1]; strain ECO UFR186, with AF2 @ 8 μg/mL
  MIC ATB in combination: <0.25 µg/mL
[1]; strain ECO UFR186, with AF3 @ 8 μg/mL
  MIC ATB in combination: <0.25 µg/mL
[1]; strain ECO UFR186, with CLA @ 4 μg/mL
  MIC ATB in combination: 8 µg/mL
[1]; strain ECO UFR187, genotype CTX-M-15, OXA-48
  MIC: 32 µg/mL
[1]; strain ECO UFR187, with AF2 @ 8 μg/mL
  MIC ATB in combination: <=0.25 μg/mL
[1]; strain ECO UFR187, with AF3 @ 8 μg/mL
  MIC ATB in combination: 0.5 µg/mL
[1]; strain ECO UFR187, with CLA @ 4 μg/mL
  MIC ATB in combination: 2 µg/mL
[1]; strain ECO UFR189, genotype TEM-1, CTX-M-15, OXA-48
  MIC: >128 µg/mL
[1]; strain ECO UFR189, with AF2 @ 8 μg/mL
  MIC ATB in combination: <0.25 µg/mL
[1]; strain ECO UFR189, with AF3 @ 8 μg/mL
  MIC ATB in combination: <0.25 µg/mL
[1]; strain ECO UFR189, with CLA @ 4 μg/mL
  MIC ATB in combination: 4 µg/mL
[1]; strain ECO UFR190, genotype CTX-M-24, OXA-48
  MIC: 64 µg/mL
[1]; strain ECO UFR190, with AF2 @ 8 μg/mL
  MIC ATB in combination: <0.25 µg/mL
[1]; strain ECO UFR190, with AF3 @ 8 μg/mL
  MIC ATB in combination: <0.25 µg/mL
[1]; strain ECO UFR190, with CLA @ 4 μg/mL
  MIC ATB in combination: 8 µg/mL
[1]; strain ECO UFR191, genotype TEM-1, CTX-M-24, OXA-48
  MIC: >128 µg/mL
[1]; strain ECO UFR191, with AF2 @ 8 μg/mL
  MIC ATB in combination: <0.25 µg/mL
[1]; strain ECO UFR191, with AF3 @ 8 μg/mL
  MIC ATB in combination: <0.25 µg/mL
[1]; strain ECO UFR191, with CLA @ 4 μg/mL
  MIC ATB in combination: 4 µg/mL
[1]; strain ECO UFR204, genotype TEM-1, CMY-4, OXA-48, VIM-1, antibiotic alone
  MIC: >128 µg/mL
[1]; strain ECO UFR204, with AF2 @ 8 μg/mL
  MIC ATB in combination: <0.25 µg/mL
[1]; strain ECO UFR204, with AF3 @ 8 μg/mL
  MIC ATB in combination: <0.25 µg/mL
[1]; strain ECO UFR204, with CLA @ 4 μg/mL
  MIC ATB in combination: >128 µg/mL
[1]; strain ECO UFR205, genotype CTX-M-15, VIM-4, antibiotic alone
  MIC: >128 µg/mL
[1]; strain ECO UFR205, with AF2 @ 8 μg/mL
  MIC ATB in combination: <=0.25 μg/mL
[1]; strain ECO UFR205, with AF3 @ 8 μg/mL
  MIC ATB in combination: <=0.25 μg/mL
[1]; strain ECO UFR205, with CLA @ 4 μg/mL
  MIC ATB in combination: >128 µg/mL
[1]; strain ECO UFR206, genotype TEM-1, CTX-M-15, OXA-1, VIM-4, antibiotic alone
  MIC: >128 µg/mL
[1]; strain ECO UFR206, with AF2 @ 8 μg/mL
  MIC ATB in combination: >128 µg/mL
[1]; strain ECO UFR206, with AF3 @ 8 μg/mL
  MIC ATB in combination: >128 µg/mL
[1]; strain ECO UFR206, with CLA @ 4 μg/mL
  MIC ATB in combination: >128 µg/mL
[1]; strain ECO UFR207, genotype CTX-M-15
  MIC: >128 µg/mL
[1]; strain ECO UFR208, genotype SHV-12
  MIC: >128 µg/mL
[1]; strain ECO UFR209, compound alone
  MIC: 1024 µg/mL
[1]; strain ECO UFR209, genotype TEM-1, CTX-M-15
  MIC: 1024 µg/mL
[1]; strain ECO UFR210, genotype SHV-12
  MIC: 32 µg/mL
[1]; strain ECO UFR211, genotype TEM-24
  MIC: >128 µg/mL
[1]; strain ECO UFR212, genotype CMY-2
  MIC: >128 µg/mL
[1]; strain ECO UFR218, genotype TEM-1, SHV-1, CTX-M-15
  MIC: >128 µg/mL
[1]; strain ECO UFR252GO, genotype VIM-2, antibiotic alone
  MIC: >128 µg/mL
[1]; strain ECO UFR252GO, with AF2 @ 8 μg/mL
  MIC ATB in combination: <0.25 µg/mL
[1]; strain ECO UFR252GO, with AF3 @ 8 μg/mL
  MIC ATB in combination: <0.25 µg/mL
[1]; strain ECO UFR252GO, with CLA @ 4 μg/mL
  MIC ATB in combination: >128 µg/mL
[1]; strain ECO UFR255, genotype NDM-1, antibiotic alone
  MIC: >128 µg/mL
[1]; strain ECO UFR255, with AF2 @ 8 μg/mL
  MIC ATB in combination: <0.25 µg/mL
[1]; strain ECO UFR255, with AF3 @ 8 μg/mL
  MIC ATB in combination: <0.25 µg/mL
[1]; strain ECO UFR255, with CLA @ 4 μg/mL
  MIC ATB in combination: >128 µg/mL
[2]; KOX UFR21, AF2 @ 8 μg/mL
  MIC ATB in combination: 2 µg/mL
[2]; KOX UFR21, AF3 @ 8 μg/mL
  MIC ATB in combination: 4 µg/mL
[2]; KOX UFR173, AF2 @ 8 μg/mL
  MIC ATB in combination: <=0.25 μg/mL
[2]; KOX UFR173, AF3 @ 8 μg/mL
  MIC ATB in combination: <=0.25 μg/mL
[2]; KOX UFR173, CLA @ 4 μg/mL
  MIC ATB in combination: 4 µg/mL
[2]; KOX UFR223, AF2 @ 8 μg/mL
  MIC ATB in combination: <0.25 µg/mL
[2]; KOX UFR223, AF3 @ 8 μg/mL
  MIC ATB in combination: <0.25 µg/mL
[2]; KOX UFR223, CLA @ 4 μg/mL
  MIC ATB in combination: <=0.25 μg/mL
[2]; KOX UFR224, AF2 @ 8 μg/mL
  MIC ATB in combination: <0.25 µg/mL
[2]; KOX UFR224, AF3 @ 8 μg/mL
  MIC ATB in combination: <0.25 µg/mL
[2]; KOX UFR224, CLA @ 4 μg/mL
  MIC ATB in combination: 8 µg/mL

— patent US20200017495A1, “NOVEL HETEROCYCLIC COMPOUNDS AND THEIR USE IN PREVENTING OR TREATING BACTERIAL INFECTIONS” (priority 2017, published 2020)
